# Tested on: HCI-002 (organoid from a triple-negative breast cancer xenograft)
# Assay: CTG-3D luminescence at 96 h relative to day-0 seeding control (ratio to day 0); higher = more growth / less cytotoxicity; PDxO 3D drug screen, 96 h, CTG-3D normalised to day-0 seeding control.
# Settings: 0.1 µM; days in culture: 191
row,Compound,CTG-3D luminescence at 96 h
1,CC(C)(C(=O)NCC(F)(F)C(F)(F)F)C(=O)N[C@@H]1C(=O)Nc2ccccc2-c2ccccc21,2.13
2,CCN(c1cc(C#CCN2CCOCC2)cc(C(=O)NCc2c(C)cc(C)[nH]c2=O)c1C)[C@H]1CC[C@H](N(C)CCOC)CC1,3.84
3,NC(=O)Nc1cc(-c2cccc(F)c2)sc1C(=O)N[C@H]1CCCNC1 [AZD7762],2.27
4,O=C(/C=C/c1cccnc1)NCCCCC1CCN(C(=O)c2ccccc2)CC1 [FK866],0.0805
5,CCc1c2c(nc3ccc(O)cc13)-c1cc3c(c(=O)n1C2)COC(=O)[C@]3(O)CC [SN-38],0.721
6,CCN1CCN(Cc2ccc(Nc3ncc(F)c(-c4cc(F)c5nc(C)n(C(C)C)c5c4)n3)nc2)CC1 [abemaciclib],1.89
7,C=CCn1c(=O)c2cnc(Nc3ccc(N4CCN(C)CC4)cc3)nc2n1-c1cccc(C(C)(C)O)n1 [adavosertib],2.3

# Same assay, conditions: 0.1 µM; days in culture: 209
row,Compound,CTG-3D luminescence at 96 h
1,CC(C)(C(=O)NCC(F)(F)C(F)(F)F)C(=O)N[C@@H]1C(=O)Nc2ccccc2-c2ccccc21,2.22
2,CCN(c1cc(C#CCN2CCOCC2)cc(C(=O)NCc2c(C)cc(C)[nH]c2=O)c1C)[C@H]1CC[C@H](N(C)CCOC)CC1,2.63
3,NC(=O)Nc1cc(-c2cccc(F)c2)sc1C(=O)N[C@H]1CCCNC1 [AZD7762],1.89
4,O=C(/C=C/c1cccnc1)NCCCCC1CCN(C(=O)c2ccccc2)CC1 [FK866],0.0589
5,CCc1c2c(nc3ccc(O)cc13)-c1cc3c(c(=O)n1C2)COC(=O)[C@]3(O)CC [SN-38],0.556
6,CCN1CCN(Cc2ccc(Nc3ncc(F)c(-c4cc(F)c5nc(C)n(C(C)C)c5c4)n3)nc2)CC1 [abemaciclib],1.36
7,C=CCn1c(=O)c2cnc(Nc3ccc(N4CCN(C)CC4)cc3)nc2n1-c1cccc(C(C)(C)O)n1 [adavosertib],1.89

# Same assay, conditions: 0.1 µM; days in culture: 227
row,Compound,CTG-3D luminescence at 96 h
1,CC(C)(C(=O)NCC(F)(F)C(F)(F)F)C(=O)N[C@@H]1C(=O)Nc2ccccc2-c2ccccc21,5.45
2,CCN(c1cc(C#CCN2CCOCC2)cc(C(=O)NCc2c(C)cc(C)[nH]c2=O)c1C)[C@H]1CC[C@H](N(C)CCOC)CC1,5.11
3,NC(=O)Nc1cc(-c2cccc(F)c2)sc1C(=O)N[C@H]1CCCNC1 [AZD7762],5.24
4,O=C(/C=C/c1cccnc1)NCCCCC1CCN(C(=O)c2ccccc2)CC1 [FK866],0.104
5,CCc1c2c(nc3ccc(O)cc13)-c1cc3c(c(=O)n1C2)COC(=O)[C@]3(O)CC [SN-38],1.13
6,CCN1CCN(Cc2ccc(Nc3ncc(F)c(-c4cc(F)c5nc(C)n(C(C)C)c5c4)n3)nc2)CC1 [abemaciclib],2.91
7,C=CCn1c(=O)c2cnc(Nc3ccc(N4CCN(C)CC4)cc3)nc2n1-c1cccc(C(C)(C)O)n1 [adavosertib],6.24

# Same assay, conditions: 1 µM; days in culture: 62
row,Compound,CTG-3D luminescence at 96 h
1,CC(C)(C(=O)NCC(F)(F)C(F)(F)F)C(=O)N[C@@H]1C(=O)Nc2ccccc2-c2ccccc21,2.12
2,CCN(c1cc(C#CCN2CCOCC2)cc(C(=O)NCc2c(C)cc(C)[nH]c2=O)c1C)[C@H]1CC[C@H](N(C)CCOC)CC1,3.25
3,NC(=O)Nc1cc(-c2cccc(F)c2)sc1C(=O)N[C@H]1CCCNC1 [AZD7762],1.41
4,O=C(/C=C/c1cccnc1)NCCCCC1CCN(C(=O)c2ccccc2)CC1 [FK866],0.0154
5,CCc1c2c(nc3ccc(O)cc13)-c1cc3c(c(=O)n1C2)COC(=O)[C@]3(O)CC [SN-38],0.117
6,CCN1CCN(Cc2ccc(Nc3ncc(F)c(-c4cc(F)c5nc(C)n(C(C)C)c5c4)n3)nc2)CC1 [abemaciclib],1.79
7,C=CCn1c(=O)c2cnc(Nc3ccc(N4CCN(C)CC4)cc3)nc2n1-c1cccc(C(C)(C)O)n1 [adavosertib],1.32

# Same assay, conditions: 1 µM; days in culture: 82
row,Compound,CTG-3D luminescence at 96 h
1,CC(C)(C(=O)NCC(F)(F)C(F)(F)F)C(=O)N[C@@H]1C(=O)Nc2ccccc2-c2ccccc21,2.61
2,CCN(c1cc(C#CCN2CCOCC2)cc(C(=O)NCc2c(C)cc(C)[nH]c2=O)c1C)[C@H]1CC[C@H](N(C)CCOC)CC1,3.86
3,NC(=O)Nc1cc(-c2cccc(F)c2)sc1C(=O)N[C@H]1CCCNC1 [AZD7762],1.47
4,O=C(/C=C/c1cccnc1)NCCCCC1CCN(C(=O)c2ccccc2)CC1 [FK866],0.0553
5,CCc1c2c(nc3ccc(O)cc13)-c1cc3c(c(=O)n1C2)COC(=O)[C@]3(O)CC [SN-38],0.265
6,CCN1CCN(Cc2ccc(Nc3ncc(F)c(-c4cc(F)c5nc(C)n(C(C)C)c5c4)n3)nc2)CC1 [abemaciclib],1.8
7,C=CCn1c(=O)c2cnc(Nc3ccc(N4CCN(C)CC4)cc3)nc2n1-c1cccc(C(C)(C)O)n1 [adavosertib],1.53

# Same assay, conditions: 1 µM; days in culture: 91
row,Compound,CTG-3D luminescence at 96 h
1,CC(C)(C(=O)NCC(F)(F)C(F)(F)F)C(=O)N[C@@H]1C(=O)Nc2ccccc2-c2ccccc21,2.99
2,CCN(c1cc(C#CCN2CCOCC2)cc(C(=O)NCc2c(C)cc(C)[nH]c2=O)c1C)[C@H]1CC[C@H](N(C)CCOC)CC1,2.39
3,NC(=O)Nc1cc(-c2cccc(F)c2)sc1C(=O)N[C@H]1CCCNC1 [AZD7762],2.42
4,O=C(/C=C/c1cccnc1)NCCCCC1CCN(C(=O)c2ccccc2)CC1 [FK866],0.0287
5,CCc1c2c(nc3ccc(O)cc13)-c1cc3c(c(=O)n1C2)COC(=O)[C@]3(O)CC [SN-38],0.289
6,CCN1CCN(Cc2ccc(Nc3ncc(F)c(-c4cc(F)c5nc(C)n(C(C)C)c5c4)n3)nc2)CC1 [abemaciclib],2.17
7,C=CCn1c(=O)c2cnc(Nc3ccc(N4CCN(C)CC4)cc3)nc2n1-c1cccc(C(C)(C)O)n1 [adavosertib],1.82

# Same assay, conditions: 1 µM; days in culture: 191
row,Compound,CTG-3D luminescence at 96 h
1,CC(C)(C(=O)NCC(F)(F)C(F)(F)F)C(=O)N[C@@H]1C(=O)Nc2ccccc2-c2ccccc21,2.48
2,CCN(c1cc(C#CCN2CCOCC2)cc(C(=O)NCc2c(C)cc(C)[nH]c2=O)c1C)[C@H]1CC[C@H](N(C)CCOC)CC1,3.37
3,NC(=O)Nc1cc(-c2cccc(F)c2)sc1C(=O)N[C@H]1CCCNC1 [AZD7762],2
4,O=C(/C=C/c1cccnc1)NCCCCC1CCN(C(=O)c2ccccc2)CC1 [FK866],0.0595
5,CCc1c2c(nc3ccc(O)cc13)-c1cc3c(c(=O)n1C2)COC(=O)[C@]3(O)CC [SN-38],0.356
6,CCN1CCN(Cc2ccc(Nc3ncc(F)c(-c4cc(F)c5nc(C)n(C(C)C)c5c4)n3)nc2)CC1 [abemaciclib],2.34
7,C=CCn1c(=O)c2cnc(Nc3ccc(N4CCN(C)CC4)cc3)nc2n1-c1cccc(C(C)(C)O)n1 [adavosertib],1.76

# Same assay, conditions: 1 µM; days in culture: 209
row,Compound,CTG-3D luminescence at 96 h
1,CC(C)(C(=O)NCC(F)(F)C(F)(F)F)C(=O)N[C@@H]1C(=O)Nc2ccccc2-c2ccccc21,2.25
2,CCN(c1cc(C#CCN2CCOCC2)cc(C(=O)NCc2c(C)cc(C)[nH]c2=O)c1C)[C@H]1CC[C@H](N(C)CCOC)CC1,2.93
3,NC(=O)Nc1cc(-c2cccc(F)c2)sc1C(=O)N[C@H]1CCCNC1 [AZD7762],1.31
4,O=C(/C=C/c1cccnc1)NCCCCC1CCN(C(=O)c2ccccc2)CC1 [FK866],0.0401
5,CCc1c2c(nc3ccc(O)cc13)-c1cc3c(c(=O)n1C2)COC(=O)[C@]3(O)CC [SN-38],0.155
6,CCN1CCN(Cc2ccc(Nc3ncc(F)c(-c4cc(F)c5nc(C)n(C(C)C)c5c4)n3)nc2)CC1 [abemaciclib],1.49
7,C=CCn1c(=O)c2cnc(Nc3ccc(N4CCN(C)CC4)cc3)nc2n1-c1cccc(C(C)(C)O)n1 [adavosertib],1.5

# Same assay, conditions: 1 µM; days in culture: 227
row,Compound,CTG-3D luminescence at 96 h
1,CC(C)(C(=O)NCC(F)(F)C(F)(F)F)C(=O)N[C@@H]1C(=O)Nc2ccccc2-c2ccccc21,4.95
2,CCN(c1cc(C#CCN2CCOCC2)cc(C(=O)NCc2c(C)cc(C)[nH]c2=O)c1C)[C@H]1CC[C@H](N(C)CCOC)CC1,4.67
3,NC(=O)Nc1cc(-c2cccc(F)c2)sc1C(=O)N[C@H]1CCCNC1 [AZD7762],2.21
4,O=C(/C=C/c1cccnc1)NCCCCC1CCN(C(=O)c2ccccc2)CC1 [FK866],0.0406
5,CCc1c2c(nc3ccc(O)cc13)-c1cc3c(c(=O)n1C2)COC(=O)[C@]3(O)CC [SN-38],0.464
6,CCN1CCN(Cc2ccc(Nc3ncc(F)c(-c4cc(F)c5nc(C)n(C(C)C)c5c4)n3)nc2)CC1 [abemaciclib],3.24
7,C=CCn1c(=O)c2cnc(Nc3ccc(N4CCN(C)CC4)cc3)nc2n1-c1cccc(C(C)(C)O)n1 [adavosertib],2.13

# — the supplement of paper PMC8882468
